The values below come from article PMC7767053, “Functional Analysis of Odorant-Binding Proteins 12 and 17 from Wheat Blossom Midge Sitodiplosis mosellana Géhin (Diptera: Cecidomyiidae)” (Insects, 2020).

Entries after “also recorded” stand apart in the source; their conditions may differ. Read-outs that look alike come from different tables or passages of the source.

One assay deals with S. mosellana females. As to the kind of experiment: Y-tube olfactometer bioassay. It is filed as in vivo, Sitodiplosis mosellana. Conditions: 10 μL of 20 μg/μL in paraffin oil vs paraffin oil control; 60 females. The procedure:
Behavioral responses of S. mosellana females to the 28 volatile ligands were measured in a glass Y-tube olfactometer. The base and two arms of the Y-tube are 15 cm in length and 25 mm in internal diameter. The angle between arms is 60°. A 10 μL aliquot of the test chemical in paraffin oil at a concentration of 20 μg/μL [45] was applied to a filter paper strip (20 × 20 mm), which was allowed to evaporate for 20 s and then placed into one of the two odor bottles. The other odor bottle contained a filter paper strip treated with 10 μL of paraffin oil as the control. Moist, activated-charcoal filtered air entered both odor bottles connected by Teflon tubing to their respective arms of the Y-tube. The airflow rate through the olfactometer was 100 mL/min, which was measured by a float rotor meter. A newly emerged female S. mosellana adult was introduced into the end of the base of the Y-tube, which was then immediately covered with a dark paper box. An office lamp (20 W) illuminated the joint of two arms to facilitate observation. The choice was made if the S. mosellana female walked or flew 5 cm past the Y junction within 5 min and remained there for at least 15 s. Otherwise, it would be recorded as no-choice. Odor source was renewed for every five individuals. After testing for 10 individuals, the Y-tube was thoroughly cleaned with 95% ethanol and dried, and the treatment and control arms were switched to avoid the directional bias. After one odor source was tested, the Y-tube, odor bottles, and Teflon tubing were cleaned and dried before reuse. All experiments were conducted in a laboratory with a temperature of 25 ± 1 °C from 5:00 to 9:00 p.m. Sixty female adults were tested in each treatment group, and each individual was used only once. The choice response of insects in each treatment group was analyzed by the chi-square test using SPSS 20.0 software (Chicago, IL, USA). Non-selecting insects were recorded but not included in the statistical analysis.

Another assay deals with SmosOBP12 (Sitodiplosis mosellana, UniProt A0A346RTY7). As to the kind of experiment: Fluorescence competitive binding assay with 1-NPN probe, recombinant SmosOBP12. The conditions noted are these: for Ki: calculated from IC50, Ki = [IC50]/(1 + [1-NPN]/K1-NPN). How it is done: (§1) To determine binding affinities of SmosOBP12 and SmosOBP17 to host plant volatile compounds, fluorescence competitive binding assays were conducted using 1-N-phenyl-naphthylamine (1-NPN) as the fluorescent probe. Twenty-eight volatile compounds from winter wheat (Table 2) were selected based on our previous research. Both the probe and candidate ligands were dissolved in chromatographic-grade methanol to obtain 1 mM stock solutions, whereas recombinant SmosOBPs were diluted in 20 mM Tris-HCl (pH 7.4) to 2 μM. Fluorescence intensity was detected on an F-4600 fluorescence spectrophotometer (Hitachi, Tokyo, Japan) with a 1 cm light path quartz cuvette. Slits of both excitation and emissions were 10 nm in width. The probe was excited at 337 nm, and emission spectra were recorded between 370 and 550 nm.
Chain of SmosOBP12 (A0A346RTY7 entry or part of it): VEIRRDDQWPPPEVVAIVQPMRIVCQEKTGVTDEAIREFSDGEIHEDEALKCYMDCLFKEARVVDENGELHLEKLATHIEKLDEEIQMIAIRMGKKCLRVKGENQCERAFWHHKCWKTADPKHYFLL
(§2) Affinities of SmosOBPs to tested volatile ligands were measured by competition assays: to the 1 mL solution containing 2 μM recombinant protein and 2 μM 1-NPN, 1 mM solution of each putative volatile ligand (in a 2 µL aliquot) was added to final concentrations of 2–14 μM for SmosOBP12 and 2–40 μM for SmosOBP17, respectively. Maximal fluorescence intensities were plotted against ligand concentrations. Data were obtained from three independent measurements.
(§3) The Kd value was calculated using GraphPad Prism 5 (GraphPad Software Inc., La Jolla, CA, USA) via nonlinear regression for a unique site of binding. The inhibition constant (Ki) of each ligand competitor was calculated from the corresponding IC50 value (the concentration of competitor displacing 50% of initial fluorescence intensity) according to the equation: Ki = [IC50]/(1 + [1-NPN]/K1-NPN), where [1-NPN] is the free concentration of 1-NPN, and K1-NPN is the dissociation constant of the SmosOBPs/1-NPN complex.

The test system of assay [1] is female antennae of S. mosellana. The arrangement: method as in Cheng et al., 2020. Conditions: ref Cheng et al., 2020; cited from earlier work.
A further assay deals with SmosOBP17 (Sitodiplosis mosellana, UniProt A0A346RTY9). Kind of assay: Fluorescence competitive binding assay with 1-NPN probe, recombinant SmosOBP17. The conditions noted are these: for Ki: calculated from IC50, Ki = [IC50]/(1 + [1-NPN]/K1-NPN); for binding to SmosOBP17 (in words): fluorescence competitive binding. The procedure:
as §1, §2, §3

In a further assay the test system is SmosOBP16. Details: method as in PMID 31017726. Conditions: cited from earlier work.
In a further assay the test system is SmosOBP21. The arrangement: method as in PMID 31017726. Conditions: cited from earlier work.
In another assay the test system is SmosOBP11. Details: method as in PMID 31017726. The conditions noted are these: cited from earlier work.
Setting [2] is: displacement of 1-NPN, 2 μM protein, 2 μM 1-NPN, ligand 2–14 μM, three independent measurements, read-out: SmosOBP12 IC50.
The mark [3] stands for this setting: displacement of 1-NPN, 2 μM protein, 2 μM 1-NPN, ligand 2–40 μM, three independent measurements, read-out: SmosOBP17 IC50.

Chain of SmosOBP17 (A0A346RTY9 entry or part of it): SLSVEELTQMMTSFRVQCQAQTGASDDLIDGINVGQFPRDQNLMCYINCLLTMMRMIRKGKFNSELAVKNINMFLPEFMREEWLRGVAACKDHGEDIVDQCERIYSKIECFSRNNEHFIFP

One may read the Ki as a dissociation constant, usually derived from enzyme kinetics or from competition with a known ligand. Broadly, the IC50 is the concentration that inhibits the measured activity by half. On to `CCCCCCOC(C)=O` [Hexyl acetate], for which, in the assay with S. mosellana females, the “behavioral response of S. mosellana female adults” value (“behavioral response” below) is “intensive response; also recorded: significant attraction; also recorded: significantly attracted”. The Ki on SmosOBP12 (read-out: SmosOBP12 Ki) was 10.42 ± 0.08 µM; at SmosOBP17, 25.51 ± 0.02 µM. The half-inhibitory concentration (IC50) amounted to 12.88 ± 0.09 µM at SmosOBP12 (setting [2]) and 33.96 ± 0.03 µM on SmosOBP17 (setting [3]). The “electrophysiological response on female antennae” value in assay [1] was “strong electrophysiological responses”.

`COC(=O)c1ccccc1O` [Methyl salicylate]: the “behavioral response” value in the assay on S. mosellana females is given as “intensive response; also recorded: significant attraction; also recorded: significantly attracted”. The IC50 is 11.9 ± 0.24 µM at SmosOBP12 and 26.8 ± 0.27 µM on SmosOBP17. In addition, the Ki on SmosOBP12 (SmosOBP12 Ki) was 9.62 ± 0.33 µM. Further, the “electrophysiological response on female antennae” value in assay [1] is reported as “strong electrophysiological responses”.

With `C=CC(C)=CCC=C(C)C` [Ocimene], the “behavioral response” value in the assay with S. mosellana females was “repelled; also recorded: intensive response; also recorded: significant repulsion; also recorded: strong repelling effect”. In addition, the Ki at SmosOBP12 (listed as ocimene, read-out: SmosOBP12 Ki) is 8.2 µM; on SmosOBP12 (read-out: SmosOBP12 Ki), 8.24 ± 0.03 µM; at SmosOBP17, over 30 µM. The IC50 on SmosOBP12 (setting [2]) was 10.17 ± 0.04 µM; on SmosOBP17 (setting [3]), over 40 µM. The “binding to SmosOBP16 (in words)” value in the assay on SmosOBP16 is given as “did not bind”. Also, in the assay on SmosOBP21, the “binding to SmosOBP21 (in words)” value was “did not bind”. Further, the “binding to SmosOBP17 (in words)” value on SmosOBP17 is given as “insensitive; also recorded: did not bind”. In the assay with SmosOBP11, the “binding to SmosOBP11 (in words)” value is reported as “did not bind”.

Regarding `C=C/C(C)=C/C/C=C(\C)CCC=C(C)C` [α-Farnesene], the “behavioral response” value in the assay on S. mosellana females was “intensive response; also recorded: significant repulsion; also recorded: repelled”. The Ki at SmosOBP12 (read-out: SmosOBP12 Ki) is over 11.3 µM; on SmosOBP17 it was over 30 µM. Further, the values for the IC50 on SmosOBP12 (setting [2]) and on SmosOBP17 (setting [3]) were over 14 µM and over 40 µM, respectively. The “binding to SmosOBP12 (in words)” value on SmosOBP12 (fluorescence competitive binding) is on record as “did not show any affinity; also recorded: no affinity”. Moreover, in the assay with SmosOBP16, the “binding to SmosOBP16 (in words)” value was “no affinity”. For the same molecule, in the assay with SmosOBP21, the “binding to SmosOBP21 (in words)” value is reported as “no affinity”. Also, the “binding to SmosOBP17 (in words)” value on SmosOBP17 is given as “did not show any affinity; also recorded: no affinity”. Also, in the assay with SmosOBP11, the “binding to SmosOBP11 (in words)” value is on record as “no affinity”.
